In general, Ki refers to the equilibrium dissociation constant of an inhibitor or competing ligand from its target.

Where only a bound is given, the exact number is not on record here.

This experiment has as its target benzodiazepine site of the GABAA receptor. The experiment in a line: Ligand binding assay of Example 6 (3H-Ro15-1788 competition, purified rat cortical membranes). The settings on record: ligand binding assay of Example 6; Table 5 Ki.

Consider `Cc1nc2c(CCCOCc3ccccc3)c(Cn3ccnc3-c3ncccc3F)ncn2n1` [Compound 226, 8-(3-Benzyloxy-propyl)-7-[2-(3-fluoro-pyridin-2-yl)-imidazol-1-ylmethyl]-2-methyl[1,2,4]triazolo[1,5-c]pyrimidine], for which the Ki was below 1 µM.

(Values after patent US7271170B2, “Imidazo-pyrimidines and triazolo-pyrimidines: benzodiazepine receptor ligands” (Neurogen Corporation, priority 2003, dated 2007).)
